Where a name gives a salt, the structure may show the parent alone.
What was measured:
[1] = tested on: male rats of the Sprague Dawley S.P.F. strain; experiment: Hypotensive activity (carotid arterial pressure) in anesthetized rats, intravenous; assay type: in vivo, rat; conditions: 1 mg/kg i.v., hydrochloride form
Protocol: The hypotensive activity was determined on groups of male rats of the Sprague Dawley S.P.F. strain weighing about 300 g which had been anesthesized with an intraveinous administration of 50 mg/kg of nembutal. The test products in their hydrochloride form were administered intraveinously in the jugular vein and the carotidiene arterial pressure was measured before and after the said administration. The variations between the initial arterial pressure and the pressure after the administration was determined as well as the time of duration of the activity and the results are reported in Table I.

[2] = tested on: spontaneous hypertendus male rats of the Okamto strain; experiment: Antihypertensive activity in spontaneously hypertensive rats, oral (tail arterial pressure); assay type: in vivo, rat; conditions: 50 mg/kg oral, hydrochloride form; for % Variation of arterial pressure 1 hour after administration: 1 h on first day; for % Variation of arterial pressure 4 hours after administration: 4 h on first day; for % Variation of arterial pressure, 10th day: 24 h after last administration
Protocol: The arterial pressure was measured before and after the said administration on the rat's tail with a pneumatic collar connected to an electronic translator of pressure and the results of Table II compare the initial arterial pressure with the arterial pressure 1,4 hours of the first day and 24 hours after the last administration.

[3] = Acute toxicity (LD50) in mice, intraperitoneal; conditions: mouse, in vivo, ip, suspension in carboxymethyl cellulose, observed one week
Protocol: The acute toxicity of the products was determined on groups of 10 mice weighing between 18 and 22 g and the products were intraperitoneally administered in a suspension in carboxymethyl cellulose.

[4] = test was for 3 days administration

Structure (SMILES) | % change in arterial pressure ([1]; at 1 min) [%] | % change in arterial pressure ([1]; at 45 min) [%] | % Variation of arterial pressure 1 hour after administration ([2]; 9 days administration) [%] | % Variation of arterial pressure 4 hours after administration ([2]; 9 days administration) [%] | % Variation of arterial pressure, 10th day ([2]; 9 days administration) [%] | LD50 at 168 h [3] [mg/kg] | % change in arterial pressure ([1]; at 15 min) [%] | % change in arterial pressure ([1]; at 5 min) [%] | % change in arterial pressure ([1]; at 60 min) [%] | % change in arterial pressure ([1]; at 10 min) [%] | % change in arterial pressure ([1]; at 30 min) [%] | % Variation of arterial pressure 1 hour after administration [2, 4] [%] | % Variation of arterial pressure 4 hours after administration [2, 4] [%] | % Variation of arterial pressure, 10th day [2, 4] [%]
Cl.O=C1Nc2ccccc2C1C1CCN(CC(O)C2COc3ccccc3O2)CC1 (centres unmarked) [Example 1, 3-{1-[2-(2,3-dihydro-1,4-benzodioxin-2-yl)-2-hydroxyethyl]-piperidin-4-yl}-1,3-dihydro-2H-indol-2-one hydrochloride] | -20 | -10 | -29 | -27 | -8 | ~150 | – | – | – | – | – | – | – | –
O=C1Nc2ccccc2C1C1CCN(C[C@H](O)[C@@H]2COc3ccccc3O2)CC1 (relative stereo) [Example 3, (dl) threo 1,3-dihydro-3-{1-[2-(2,3-dihydro-1,4-benzodioxin-2-yl)-2-hydroxyethyl]-piperidin-4-yl}-2H-indol-2-one hydrochloride] | -20 | – | – | – | – | ~125 | -10 | – | – | – | – | – | – | –
O=C1Nc2ccccc2C1C1CCN(C[C@H](O)[C@H]2COc3ccccc3O2)CC1 (relative stereo) [Example 2, (dl) erythro 1,3-dihydro-3-{1-[2-(2,3-dihydro-1,4-benzodioxin-2-yl)-2-hydroxyethyl]-piperidin-4-yl}-2H-indol-2-one hydrochloride] | – | – | -23 | -22 | -9 | ~125 | – | -30 | -20 | – | – | – | – | –
CN1C(=O)C(C2CCN(C[C@H](O)[C@H]3COc4ccccc4O3)CC2)c2ccccc21 (relative stereo) [Example 4, (dl) erythro 1,3-dihydro-3-{1-[2-(2,3-dihydro-1,4-benzodioxin-2-yl)-2-hydroxyethyl]-piperidin-4-yl}-1-methyl-2H-indol-2-one hydrochloride] | -28 | – | – | – | – | ~200 | – | -23 | – | -26 | -24 | -23 | -31 | -16

Reference: patent US4224333A, “Antihypertensive 2H-indol-2-ones” (Roussel Uclaf, priority 1978, dated 1980)
